Measurements from PMC4398638 (Bioorganic & medicinal chemistry, 2015).

System: WI-38 human lung fibroblasts (normal) cell line (FR−)
Assay: MTT cytotoxicity assay, WI-38 cells
Format: cell-based
Conditions: normal (WI-38, FR−) cells versus FR-overexpressing cancer cells / free drug

SMILES: CC(=O)O[C@@]12CO[C@@H]1C[C@H](O)[C@@]1(C)C(=O)[C@H](OC(=O)C3CC3)C3=C(C)[C@@H](OC(=O)[C@H](OC(=O)Cc4ccccc4SSC(C)CCC(=O)NCCCOCCOCCOCCCNC(=O)c4ccc(CC5CCCCCc6c5nnn6CCOCCOCCOCCNC(=O)CC[C@H](NC(=O)CC[C@H](NC(=O)c5ccc(NCc6cnc7nc(N)[nH]c(=O)c7n6)cc5)C(=O)O)C(=O)N[C@@H](CCCNC(=N)N)C(=O)O)cc4)[C@H](C=C(C)C)NC(=O)OC(C)(C)C)C[C@@](O)([C@@H](OC(=O)c4ccccc4)[C@H]21)C3(C)C (stereo partly shown) [Conjugate 1]
- decrease in cytotoxicity against normal human cells: > 1,000 fold
